In PMC11493595, “Stretching the structural envelope of imatinib to reduce β-amyloid production by modulating both β- and γ-secretase cleavages of APP” (Frontiers in Chemistry, 2024):
Counter-ions that a name gives are not always drawn.

Legend:
[1] = system: N2a695 cells; assay: Screening of Aβ production in N2a695 cells (Aβ ELISA of cell supernatants); format: cell-based
Description: N2a695 were cultured in 1:1 OptiMem Reduced Serum Media (Life Technologies): Dulbecco’s Modified Eagle Medium ([+] 4.5 g/L D-glucose [+] L-Glutamine; [−] Sodium pyruvate (Life Technologies) supplemented with 5% fetal bovine serum, 0.4% Penstrep and 0.4% Geneticin and incubated at 37°C in 5% CO2. Antibodies were obtained from The Laboratory of Molecular and Cellular Neuroscience at The Rockefeller University. Human Aβ40 and Aβ42 ELISA plates (Life Technologies) and Plus MSD (Mesoscale Discovery) plates for Aβ Peptide (Aβ38, Aβ40 and Aβ42) Panel 1 (6E10) Kit (Catalog number K15200G) were obtained from Thermo Fisher, Life Technologies and Meso Scale Discovery.
N2a695 cells were used to screen all new compounds and in the follow-up studies with compounds found active in the preliminary screen. In a typical experiment, 6-well tissue culture plates (Corning) were seeded at 4.0 × 10^5–4.5 × 10^5 N2a695 cells/mL, 2 mL/well for overnight incubation. When cells were >95% confluent, media were exchanged with fresh media containing 10 µM solutions of compounds or DMSO carrier alone and cells were incubated at 37°C in 5% CO2 for 5 h. Culture media were collected and soluble Aβ concentrations in the media were determined by ELISA or MSD plates for human Aβ peptides as per manufacturer instructions. Signals for Aβ were measured using Perkin Elmer Envision and SQ120 MSD ELISA reader. Follow-up studies with N2a695 cells were performed similarly.
Specifically, we exposed N2a695 cells to increasing concentrations of each compound and measured the production of Aβ38, 40, and 42. […] Remarkably, this occurs for all Aβ peptides tested shorter than 40 amino acids (Figure 2C). Moreover, for some compounds that modulate γ-secretase activity most conspicuously at 5 μM, this effect vanishes at 10 μM, relative to controls (Figure 2B, C). […]

[2] = system: BACE1; set-up: method as in Netzer et al., 2017; conditions: two in vitro BACE1 assays, concentrations up to 100 μM; ref Netzer et al., 2017; cited from earlier work
[3] = target: T1, Abl1 kinase (Homo sapiens, UniProt P00519); assay: In vitro kinase activity assay (split-luciferase, Luceome); format: biochemical; conditions: read-out: IC50, Abl kinase
T1 sequence (P00519 242-493 limits assumed): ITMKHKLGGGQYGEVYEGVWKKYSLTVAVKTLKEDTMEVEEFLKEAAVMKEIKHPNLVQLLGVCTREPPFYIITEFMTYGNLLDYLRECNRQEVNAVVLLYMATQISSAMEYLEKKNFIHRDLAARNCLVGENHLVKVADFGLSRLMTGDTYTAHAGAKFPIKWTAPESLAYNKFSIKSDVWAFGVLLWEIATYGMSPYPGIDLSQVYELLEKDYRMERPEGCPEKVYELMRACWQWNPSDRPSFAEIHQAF
Description: The assay was performed by Luceome Biotechnologies, LLC. Typically, 10 mM stock solutions of the compounds were diluted in DMSO to a concentration of 250 μM. Prior to initiating the assay, all test compounds were evaluated for false positive against split-luciferase ([Jester et al., 2010]). For kinase assays, each Cfluc-Kinase was translated along with Fos-Nfluc using a cell-free system (rabbit reticulocyte lysate) at 30°C for 90 min 24 μL aliquot of this lysate containing either 1 μL of DMSO (for no-inhibitor control) or compound solution in DMSO (10 μM final concentration) was incubated for 30 min at room temperature followed by 1 h in presence of a kinase specific probe. 80 μL of luciferin assay reagent was added to each solution and luminescence was immediately measured on a luminometer. The percent Inhibition was calculated using the following equation: % Inhibition = (ALUcontrol–ALUsamplex 100)/ALUcontrol.

[4] = system: β- and γ-cleavages of APP; assay: Aβ in N2a cells transiently transfected with APP-FL or APP99 (APP-βCTF): BACE vs γ-secretase cleavage; format: cell-based; conditions: N2a cells transiently transfected with APP695 (APP-FL) or APP C99, 5 h
Description: To determine effects of compounds on BACE1 vs. GS inhibition, we used N2a cells transiently transfected with full length APP (APP-FL) or with APP99 (APP-βCTF) as described previously ([Netzer et al., 2017]; [Sun et al., 2019]). After 48 h, media were removed and fresh media containing compound 1a and analogs were added. Following 5 h of incubation, cell supernatants were collected, and analyzed using MSD-ELISA for Aβ and sAPPα and western blot for sAPPβ.
We focused on IMTi-1 and its analogs 1d, 1f and 1p. […] To test whether these compounds lower Aβ levels by affecting the BACE and/or γ-secretase cleavages, we transfected wild-type (wt) cells with APP-FL and APP βCTF (C99), respectively, and incubated the cells with IMTi-1 (isomer) and analogs 1d, 1f and 1p. We used BACE inhibitor, MK8931, and γ-secretase inhibitor, DAPT, as controls and performed the experiments and processed the results as described previously ([Sun et al., 2019]).

Row | IC50 [3] | SMILES | Activity in Aβ production assays ([1]; N2a695 cells) | Inhibition of BACE1 enzymatic activity [2] | Aβ38 levels relative to controls ([1]; 5 μM, N2a695 cells, ELISA) | Reduction of Aβ40 levels compared with IMT ([1]; 10 µM, N2a695 cell supernatants, anti-Aβ40 ELISA) | BACE and γ-secretase cleavage of APP, Aβ levels [4]
1 |  | Cc1ccc(NC(=O)c2ccc(CN3CCN(C)CC3)cc2)cc1Nc1nccc(-c2cccnc2)n1 [IMT, imatinib mesylate, reference compound] | active | does not inhibit BACE1 enzymatic activity |  |  | 
2 | 1170 nM | Cc1ccccc1Nc1nccc(-c2cncc(NC(=O)c3ccc(CN4CCN(C)CC4)cc3)c2)n1 [IMTi-1] | active |  | boost levels of Aβ38 above controls | reduced Aβ40 levels more strongly than IMT | lower BACE and γ-secretase cleavage of APP
